What was measured:
[1] = system: barnyardgrass; test: Test B flooded paddy test; type: in vivo, Echinochloa crus-galli; conditions: 500 g ai/ha, Flood; scale of 0 to 100 where 0 is no effect and 100 is complete control
Summary of the method: (§1)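 First, plants reach the 2-leaf stage; next, pots are flooded to 3 cm and compound is delivered into the water; finally, after 13 to 15 greenhouse days at constant depth, injury is graded visually from 0 to 100 against controls.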

[2] = system: giant foxtail; test: Test A pre-/postemergence herbicide test; type: in vivo, Setaria faberii
Summary of the method: (§2)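 Visual injury ratings, 0 = no effect, 100 = complete control, taken ~10 days after treatment against untreated greenhouse controls. Preemergence: directed soil spray onto seeded loam/sand pots. Postemergence: spray onto plants at one- to two-leaf stage, 2–10 cm tall.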

[3] = system: kochia; test: Test A pre-/postemergence herbicide test; type: in vivo, Kochia scoparia
Summary of the method: as §2

[4] = system: sedge, umbrella; test: Test B flooded paddy test; type: in vivo, Cyperus difformis; conditions: 500 g ai/ha, Flood; scale of 0 to 100 where 0 is no effect and 100 is complete control
Summary of the method: as §1

[5] = system: ryegrass, Italian; test: Test A pre-/postemergence herbicide test; type: in vivo, Lolium multiflorum
Summary of the method: as §2

[6] = system: ragweed; test: Test A pre-/postemergence herbicide test; type: in vivo, Ambrosia elatior
Summary of the method: as §2

[7] = system: pigweed; test: Test A pre-/postemergence herbicide test; type: in vivo, Amaranthus retroflexus
Summary of the method: as §2

[8] = system: ducksalad; test: Test B flooded paddy test; type: in vivo, Heteranthera limosa; conditions: 500 g ai/ha, Flood; scale of 0 to 100 where 0 is no effect and 100 is complete control
Summary of the method: as §1

[9] = system: blackgrass; test: Test A postemergence herbicide test; type: in vivo, Alopecurus myosuroides
Summary of the method: (§3)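 Potted in loam soil/sand blend; postemergence application at 1–2 leaf stage (2–10 cm). Greenhouse ~10 d. Visual injury vs untreated, 0–100 scale; 100 = complete control.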

[10] = system: rice; test: Test B flooded paddy test; type: in vivo, Oryza sativa; conditions: 500 g ai/ha, Flood; scale of 0 to 100 where 0 is no effect and 100 is complete control
Summary of the method: as §1

[11] = system: wheat; test: Test A pre-/postemergence herbicide test; type: in vivo, Triticum aestivum; conditions: Postemergence
Summary of the method: as §2

[12] = system: galium; test: Test A postemergence herbicide test; type: in vivo, Galium aparine
Summary of the method: as §3

[13] = system: corn; test: Test A pre-/postemergence herbicide test; type: in vivo, Zea mays; conditions: Postemergence
Summary of the method: as §2

[14] = system: barnyardgrass; test: Test A pre-/postemergence herbicide test; type: in vivo, Echinochloa crus-galli
Summary of the method: as §2

[15] = Postemergence, 125 g ai/ha, visual rating on 0 to 100 scale (0 no effect, 100 complete control), approx. 10 days
[16] = Postemergence, 500 g ai/ha, 0 to 100 scale (0 no effect, 100 complete control)
[17] = Preemergence, 125 g ai/ha, 0 to 100 scale where 0 is no effect and 100 is complete control
[18] = Preemergence, 500 g ai/ha, visual rating on 0 to 100 scale (0 no effect, 100 complete control)
[19] = 125 g ai/ha, visual rating on 0 to 100 scale (0 no effect, 100 complete control), approx. 10 days
[20] = 500 g ai/ha, 0 to 100 scale (0 no effect, 100 complete control)

Row | SMILES | Plant response rating, Barnyardgrass [1] | Plant response rating, Foxtail, Giant [2, 15] | Plant response rating, Foxtail, Giant [2, 16] | Plant response rating, Foxtail, Giant [2, 17] | Foxtail, Giant plant response rating [2, 18] | Plant response rating, Kochia [3, 15] | Plant response rating, Kochia [3, 17] | Kochia plant response rating [3, 18] | Plant response rating, Sedge, Umbrella [4] | Plant response rating, Ryegrass, Italian [5, 15] | Plant response rating, Ryegrass, Italian [5, 17] | Ryegrass, Italian plant response rating [5, 18] | Plant response rating, Ragweed [6, 15] | Plant response rating, Ragweed [6, 17] | Ragweed plant response rating [6, 18] | Plant response rating, Pigweed [7, 15] | Plant response rating, Pigweed [7, 17] | Pigweed plant response rating [7, 18] | Plant response rating, Ducksalad [8] | Plant response rating, Blackgrass [9, 19] | other results
1 | O=C1NCC(c2ccc(Br)c(Br)c2)C1C(=O)Nc1ccc(F)c(F)c1F (stereo not drawn) [Compound 342] | 0 | 40 | 50 | 70 | 90 | 20 | 0 | 0 | 0 | 0 | 0 | 20 | 0 | 0 | 0 | 0 | 0 | 50 | 0 | 0 | Plant response rating, Blackgrass [9, 20]: 0; Plant response rating, Rice [10]: 0; Plant response rating, Wheat [11, 19]: 0; Plant response rating, Galium [12, 19]: 0; Plant response rating, Corn [13, 19]: 0; Plant response rating, Corn [13, 20]: 40; Plant response rating, Barnyardgrass [14, 15]: 30; Plant response rating, Barnyardgrass [14, 16]: 60; Plant response rating, Barnyardgrass [14, 17]: 50; Barnyardgrass plant response rating [14, 18]: 80
2 | CC(C)c1cccc(C2CNC(=O)C2C(=O)Nc2ccccc2C(F)(F)F)c1 (stereo not drawn) [Compound 320] | 45 | 30 | 70 | 30 | 90 | 20 | 0 | 20 | 0 | 0 | 20 | 50 | 0 | 0 | 30 | 0 | 0 | 0 | 100 | 0 | Plant response rating, Kochia [3, 16]: 20; Plant response rating, Ryegrass, Italian [5, 16]: 30; Plant response rating, Ragweed [6, 16]: 30; Plant response rating, Pigweed [7, 16]: 0; Plant response rating, Blackgrass [9, 20]: 20; Plant response rating, Rice [10]: 0; Plant response rating, Wheat [11, 19]: 0; Plant response rating, Wheat [11, 20]: 0; Plant response rating, Galium [12, 19]: 0; Plant response rating, Galium [12, 20]: 0; Plant response rating, Corn [13, 19]: 0; Plant response rating, Corn [13, 20]: 0; Plant response rating, Barnyardgrass [14, 15]: 50; Plant response rating, Barnyardgrass [14, 16]: 90; Plant response rating, Barnyardgrass [14, 17]: 20; Barnyardgrass plant response rating [14, 18]: 80
